According to ChEMBL document CHEMBL1268990, “Substituted pyrazoles as novel sEH antagonist: investigation of key binding interactions within the catalytic domain” (Bioorg Med Chem Lett, 2010):

Tested on: Liver microsomes
Assay: Metabolic stability in human liver microsomes
Type: ADME, Microsome

In the case of `O=C(Nc1ccc(-n2nc(-c3cccnc3)cc2C(F)(F)F)cn1)c1ccccc1`, the Stability is reported as 36%.

With `O=C(Nc1ccc(-n2nc(-c3cccnc3)cc2C(F)(F)F)nn1)c1ccccc1` the Stability was 31%.
